Experimental data from US9149038B2, “4-amino-6-(heterocyclic)picolinates and 6-amino-2-(heterocyclic)pyrimidine-4-carboxylates and their use as herbicides” (Dow AgroSciences LLC, priority 2013, dated 2015).
Like-named read-outs stand apart in the source and are kept apart here.

Tests used:
[1] = tested on: Key Grass and Sedge Weeds as well as Grass Crops; assay: Post-Emergent Test II: postemergent herbicidal activity, visual rating after 14 d (Table 8); format: in vivo; details: post-emergence, 336 h; for pest or weed control at 35 g/ha: 35 g ai/ha; for pest or weed control at 70 g/ha: 70 g ai/ha; for pest or weed control at 140 g/ha: 140 g ai/ha
In short: (§1)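 Visual 0-100% injury score (0 no injury, 100 complete kill) at 14 d post-spray, relative to untreated plants. Seedlings at 1st-2nd true leaf stage; track sprayer at 187 L/ha, highest rate plus ½×, ¼×, ⅛×, 1/16× serial dilutions. Subirrigated after treatment.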

[2] = tested on: Key Broadleaf Weed and Crop Species; assay: Post-Emergent Test II: postemergent herbicidal activity, visual rating after 14 d (Table 7); format: in vivo; details: post-emergence, 336 h; for pest or weed control at 35 g/ha: 35 g ai/ha; for pest or weed control at 70 g/ha: 70 g ai/ha; for pest or weed control at 140 g/ha: 140 g ai/ha
In short: as §1

[3] = barnyardgrass (Echinochloa crus-galli), read-out: Visual Growth Reduction (%) 14 Days After Application, ECHCG
[4] = giant foxtail (Setaria faberi), read-out: Visual Growth Reduction (%) 14 Days After Application, SETFA
[5] = maize, corn (Zea mays), read-out: Visual Growth Reduction (%) 14 Days After Application, ZEAMX
[6] = rice (Oryza sativa), read-out: Visual Growth Reduction (%) 14 Days After Application, ORYSA
[7] = wheat, spring (Triticum aestivum), read-out: Visual Growth Reduction (%) 14 Days After Application, TRZAS
[8] = yellow nutsedge (Cyperus esculentus), read-out: Visual Growth Reduction (%) 14 Days After Application, CYPES
[9] = ABUTH: velvetleaf (Abutilon theophrasti), read-out: Visual Growth Reduction (%) 14 Days After Application ABUTH
[10] = AMARE: redroot pigweed (Amaranthus retroflexus), read-out: Visual Growth Reduction (%) 14 Days After Application AMARE
[11] = BRSNN: oilseed rape, canola (Brassica napus), read-out: Visual Growth Reduction (%) 14 Days After Application BRSNN
[12] = CHEAL: lambsquarters (Chenopodium album), read-out: Visual Growth Reduction (%) 14 Days After Application CHEAL
[13] = EPHHL: wild poinsettia (Euphorbia heterophylla), read-out: Visual Growth Reduction (%) 14 Days After Application EPHHL
[14] = HELAN: sunflower (Helianthus annuus), read-out: Visual Growth Reduction (%) 14 Days After Application HELAN

Compound: COC(=O)c1nc(-c2ccc3c(c2)COC3)c(F)c(N)c1Cl [Compound 103, Methyl 4-amino-3-chloro-6-(1,3-dihydroisobenzofuran-5-yl)-5-fluoropicolinate]
- pest or weed control at 35 g/ha [1, 3]: 0 to 29%
- pest or weed control at 70 g/ha [1, 3]: 0 to 29%
- pest or weed control at 140 g/ha [1, 3]: 0 to 29%
- pest or weed control at 35 g/ha [1, 4]: 0 to 29%
- pest or weed control at 70 g/ha [1, 4]: 0 to 29%
- pest or weed control at 140 g/ha [1, 4]: 0 to 29%
- pest or weed control at 35 g/ha [1, 5]: 0 to 29%
- pest or weed control at 70 g/ha [1, 5]: 0 to 29%
- pest or weed control at 140 g/ha [1, 5]: 0 to 29%
- pest or weed control at 35 g/ha [1, 6]: 0 to 29%
- pest or weed control at 70 g/ha [1, 6]: 0 to 29%
- pest or weed control at 140 g/ha [1, 6]: 0 to 29%
- pest or weed control at 35 g/ha [1, 7]: 0 to 29%
- pest or weed control at 70 g/ha [1, 7]: 0 to 29%
- pest or weed control at 140 g/ha [1, 7]: 0 to 29%
- pest or weed control at 35 g/ha [1, 8]: 0 to 29%
- pest or weed control at 70 g/ha [1, 8]: 0 to 29%
- pest or weed control at 140 g/ha [1, 8]: 0 to 29%
- pest or weed control at 35 g/ha [2, 9]: 0 to 29%
- pest or weed control at 70 g/ha [2, 9]: 0 to 29%
- pest or weed control at 140 g/ha [2, 9]: 0 to 29%
- pest or weed control at 35 g/ha [2, 10]: 0 to 29%
- pest or weed control at 70 g/ha [2, 10]: 0 to 29%
- pest or weed control at 140 g/ha [2, 10]: 0 to 29%
- pest or weed control at 35 g/ha [2, 11]: 0 to 29%
- pest or weed control at 70 g/ha [2, 11]: 0 to 29%
- pest or weed control at 140 g/ha [2, 11]: 0 to 29%
- pest or weed control at 35 g/ha [2, 12]: 45 to 59%
- pest or weed control at 70 g/ha [2, 12]: 85 to 94%
- pest or weed control at 140 g/ha [2, 12]: 95 to 100%
- pest or weed control at 35 g/ha [2, 13]: 0 to 29%
- pest or weed control at 70 g/ha [2, 13]: 0 to 29%
- pest or weed control at 140 g/ha [2, 13]: 0 to 29%
- pest or weed control at 35 g/ha [2, 14]: 75 to 84%
- pest or weed control at 70 g/ha [2, 14]: 75 to 84%
- pest or weed control at 140 g/ha [2, 14]: 75 to 84%
